Reference: patent publication US20080045463A1, “Methods For Lowering Hif-1 Mediated Gene Expression” (priority 2004, published 2008)
Values belong to the compound of their own block, whether it stands above or below them.

Columns and labels:
[1] = test system: HIF-1α; conditions: requires conversion to pyruvate via lactate dehydrogenase (Lu et al. 2002); cited from earlier work
[2] = test system: HIF-1α; test: HIF-1α decay after washout of inducer; type: cell-based, human; conditions: 100 μM each
Procedure: (§1) Human U87, U251, U251-HRE (20) and U373 glioma cells were cultured in Eagle's MEM medium (Mediatech). DU145 human prostate cancer cells and 022 human head and neck cancer cells were cultured in RPMI 1640 medium (Sigma). 22B Human head and neck cancer cells were cultured in high glucose DMEM (Gibco) containing 2 mM glutamine. C6 ODD-GFP rat glioma cells were cultured in high glucose DMEM with 1.5 mg/ml G418. All culture media were supplemented with 10% fetal bovine serum and 1% (v/v) penicillin/streptomycin. Rat C6 glioma cells were cultured in high glucose DMEM. For cell hypoxia treatment, the culture dishes were sealed in a modular incubator chamber, flushed with gas containing 1% O2, 5% CO2 and 94% N2 for 5 minutes, and incubated in this environment at 37° C. for indicated times.
(§2) Protein extraction, western blot analysis, and immunocytochemistry were performed as previously described. Mouse monoclonal anti-HIF-1α antibodies were 610958 (BD Biosciences), and NB100-123 (Novus). Mouse monoclonal anti-GFP antibody was 1814460 (Roche). Mouse monoclonal anti-β-actin antibody was ab6276-100 (Abcam). Dimethyloxalylglycine was D1070 (Frontier Scientific). All other chemicals were from Sigma. Antibodies recognizing HPH homologues were from Novus biologicals and the antisera recognizing […] of HIF-1α was kindly provided by R. Freeman.
To test this U251 cells was exposed to glucose-free Krebs buffer to either hypoxia (1% O2) or 2 mM pyruvate for four hours. Nuclear HIF-1α protein accumulation was induced by both treatments (FIG. 6A). […] HIF-1α immunoreactivity disappeared rapidly upon reoxygenation (return to 21% O2) of hypoxic cells as would be expected with the resumption of oxygen-dependent HIF-1α hydroxylation and proteolysis. […] To directly determine if the HPH activity in glioma cells was reversibly inactivated by pyruvate and oxaloacetate the ^35S-pVHL pulldown assay to measure HPH activity in extracts from cells treated for four hours with the 2-oxoacids was used. To capture the endogenous state of HPH activity, the cell extracts were first assayed without supplementation with exogenous reductants, ascorbate, or iron. […] The minimal HPH activity of extracts from pyruvate or oxaloacetate treated cells could also be restored by supplementation of the extracts with ascorbate or with exogenous ferrous iron (FeSO4) during the assay (FIG. 6D).

[3] = test system: HIF-1α; test: HIF-1α accumulation in 22B head and neck cancer cells; type: cell-based, human; conditions: 22B cells, 100 μM each, last 30 minutes after 24 hours accumulation
Procedure: as §1, §2

[4] = test system: HPH; test: HPH activity in extracts of treated U251 cells (35S-pVHL pulldown); type: cell-based, human
Procedure: (§3) Human HPH-1,2,3 and VHL pcDNA3.1/V5-HIS vectors (kindly provided by R. Bruick) were used for TNT Coupled Reticulocyte Lysate in vitro transcription/translation (Promega). Cytoplasmic extract for HPH activity was made by lysing cell pellets in assay buffer (20 mM Tris, pH 7.5, 5 mM KCl, 1.5 mM MgCl2, and 1 mM DTT) at 4° C. using a homogenizer, centrifuging at 20,000 g for 15 minutes and collecting supernatant for the assay. HPH enzymatic reactions were performed as previously described using either IVT products or cell extracts. This assay, chosen for its specificity for the HPH reaction, was linear over 30 minutes. For each reaction, either 7.5 μL of IVT products or 100 μg of cell extract protein were used as source of the enzyme. Activity was measured by either quantitative scintillation counting or by autoradiography after gel electrophoresis on a 10-20% Tris Glycine gradient gel (Invitrogen).
To test this U251 cells was exposed to glucose-free Krebs buffer to either hypoxia (1% O2) or 2 mM pyruvate for four hours. Nuclear HIF-1α protein accumulation was induced by both treatments (FIG. 6A). Then the cells were either returned to 21% O2 or the pyruvate was removed by extensively washing with glucose-free Krebs buffer. […]

[5] = test system: labile intracellular iron pool; test: Calcein fluorescence assay for cellular free iron; type: cell-based, human; conditions: calcein loaded U251 cells
Procedure: The ability of 2-oxoacids to chelate the labile intracellular iron pool was measured using the calcein fluorescence assay as previously described. The iron chelators desferrioxamine and bipyridyl were used as positive controls.

[6] = test system: HPH; test: 2-Oxoglutarate: HPH binding assay; design: species or system human; conditions: addition of 200 μM ferrous iron
Procedure: Gel was washed four times with the indicated buffer. Analysis of HPH binding was measured by scintillation counting.

[7] = test system: HIF-1α; test: Nuclear HIF-1α accumulation in human cancer cell lines (western blot); type: cell-based
Procedure: as §1, with “DU145 human prostate cancer cells and 022 human head and neck cancer cells were cultured in RPMI 1640 medium (Sigma).” left out
Protein extraction, western blot analysis, and immunocytochemistry were performed as previously described. […] Mouse monoclonal anti-β-actin antibody was ab6276-100 (Abcam). Dimethyloxalylglycine was D1070 (Frontier Scientific). All other chemicals were from Sigma.

[8] = test system: ODD-GFP; test: Live cell assay for oxygen-dependent degradation, ODD-GFP transfected C6 glioma cells; type: cell-based, rat; conditions: C6 cells in Krebs buffer; amino acids 0.5 mM
Procedure: as §1
Next a live cell assay for oxygen-dependent HIF-1α degradation using C6 rat glioma cells that had been stably transfected with a vector encoding the HIF-1 cc ODD region fused to GFP (ODD-GFP) was performed. The ODD-GFP protein is hydroxylated and degraded in an oxygen dependent manner similar to HIF-1α. As with HIF-1α, a basal, as well as, hypoxia-inducible accumulation of ODD-GFP has been reported.

[9] = test system: HIF-1; test: HIF-1 luciferase reporter assay in U251-HRE cells; type: cell-based, human; conditions: 2 mM 2-oxoacid, 250 μM amino acid, 8 h
[10] = test system: VEGF and GLUT3; test: RT-PCR of HIF-1 regulated genes in U87 cells; type: cell-based, human; conditions: U87, 5× the level normally found in MEM, 2 d
Procedure: Total RNA was isolated using the RNeasy kit (Qiagen). For RT-PCR, 1 μg of total RNA was used with the […] One-Step System (Invitrogen). VEGF, GLUT3, and β-Actin primers were described previously. For quantitative PCR analysis, the iQ SY BR Green Supermix and MyiQ Single-Color

[11] = test system: HPH1, HPH2, and HPH3; test: HPH prolyl hydroxylation assay with in vitro translated HPHs (35S-pVHL pulldown); type: biochemical, human; conditions: in the absence of ascorbate or other reducing agents
Procedure: as §3
To determine whether HPH activity was directly modulated by pyruvate or oxaloacetate, Pro564 hydroxylation in a biotinylated HIF-1α ODD peptide by in vitro translated HPH1, HPH2, and HPH3 was examined. The ability of streptavidin beads to pull down ^35S-pVHL bound to the biotinylated peptide was used as evidence of HIF-1α ODD peptide hydroxylation. This is the most specific and sensitive assay for HPH activity. […] Such assays can also give high background values in cell extracts.

[12] = test system: HIF-1α; test: HIF-1α hydroxyproline detection in U251 whole cell extracts; type: cell-based, human; conditions: U251, four hours, antibody to hydroxylated ODD region
Procedure: as §2
Some reactive oxygen species can also induce HIF-1α. […] Next, attention was focused on HIF-1α proline hydroxylation as a target for 2-oxoacids.

SMILES: CC(O)C(=O)O (stereo not shown) [lactate]
HIF-1α accumulation induced by lactate [1]: can induce HIF-1α accumulation

binding of 35S-HPH homologues to the 2-OG column [6]: doubled
SMILES: O=S(=O)([O-])[O-].[Fe+2] [Fe(II)]
HIF-1α decay following induction with pyruvate or oxaloacetate, iron in wash [2]: enhancement of HIF-1α decay
decay of NO-induced HIF-1α with iron in wash [2]: accelerated the decay
decay of accumulated HIF-1α after washing out DFO, iron added [2]: promoted decay
accumulated (pyruvate-enhanced) HIF-1α after supplementation [3]: Fe(II)>Fe(III)
accumulated (pyruvate-enhanced) HIF-1α after supplementation ([3]; listed as ferrous iron): diminished to a greater extent by ferrous iron than by ferric iron
HPH activity of extracts from pyruvate or oxaloacetate treated cells, extract supplemented during assay ([4]; 100 μM each): restored
intracellular calcein fluorescence [5]: decrease in fluorescence
HIF-1α induction by pyruvate and oxaloacetate with iron added to cultured cells ([7]; U251, Fe(II) 100 μM): prevented HIF-1α induction
NO induced HIF-1α accumulation ([7]; U251, MEM, DETA-NO 300 μM, ascorbate 100 μM, Fe(II) 100 μM, GSH 5 mM): complete inhibition

SMILES: N[C@@H](CS)C(=O)O [cysteine]
ODD-GFP induction by pyruvate or oxaloacetate [8]: reduced ODD-GFP induction
HRE-luciferase activity induced by pyruvate or oxaloacetate [9]: lowered HRE-luciferase activity
HIF-1α accumulation by hypoxia or the iron chelator DFO ([7]; FIG. 3C, 1% O2 or 150 μM DFO): did not affect
inhibition of basal HIF-1α accumulation ([7]; U87, Krebs buffer reconstituted with MEM additives at concentration normally present in MEM, four hours): key amino acids responsible for inhibiting basal HIF-1α accumulation
inhibition of HIF-1α accumulation, L- vs D-isomers and dimer ([7]; U87, four hours, glucose-free Krebs, 1 mM pyruvate or oxaloacetate, 250 μM (FIG. 3C)): effective
HIF-1α induction by glucose, pyruvate, and oxaloacetate ([7]; all cell lines used in this study (data not shown)): lowered HIF-1α induction
inhibition of basal HIF-1α accumulation in complete culture media ([7]; amino acid raised to 5× its normal level in MEM): likely endogenous inhibitors of basal HIF-1α accumulation
basal expression of the HIF-1 regulated genes VEGF and GLUT3 [10]: lowered the basal expression
stimulation of HIF-1α ODD hydroxylation [11]: dose dependently stimulate HIF-1α ODD hydroxylation

SMILES: COC(=O)CNC(=O)C(=O)OC [DMOG, dimethyloxalylglycine]
HPH activity in extracts of cells treated for four hours ([4]; U251, 2 mM pyruvate or oxaloacetate, 1 mM DMOG, no exogenous reductants, ascorbate or iron): no loss of HPH activity
hydroxyproline (Pro564) in induced HIF-1α [12]: did not contain hydroxyproline
